Experimental data: patent US7838562B2, “Methods of inhibiting vascular permeability and apoptosis” (University of Connecticut, priority 2004, dated 2010)
Like-named read-outs stand apart in the source and are kept apart here.

Tests used:
phospho-Akt = experiment: Western blot of Akt phosphorylation in HUVEC; assay type: cell-based, human; details: for increase in Akt phosphorylation levels: 100 nM, after 5 minutes; for time of maximum Akt phosphorylation levels: data not shown; for Akt phosphorylation with Pertussis toxin: incubation with Pertussis toxin
Excerpt: (§1) Endothelial cell morphogenesis, a phenomenon that requires endothelial cell migration, survival and adherens junction assembly, is mediated by the ligand-dependent activation of S1P1 and S1P3 receptors. […] The effects of FTY720-P and analogs on Akt and ERK phosphorylation in HUVEC were studied in a Western blot analysis. Confluent cultures of HUVEC cells were serum starved for two hours in 0.1% ffa-BSA M199 before treatments. Then, they were washed with ice-cold phosphate buffered saline (PBS) containing 1 mM sodium fluoride and 1 mM sodium orthovanadate and homogenized in radioimmunoprecipitation assay buffer (0.1% sodium dodecyl sulfate (SDS), 0.5% sodium deoxycholate, 1% NP-40, 1 mM sodium orthovanadate, 50 mM β-glycerophosphate and 1× protease inhibitor cocktail). Samples were centrifuged 10,000×g for 10 minutes, and protein concentrations of supernatants were determined by Bradford assay (BioRad Protein Dye Reagent). Equal amounts of protein were separated on a 10% polyacrylamide gel and blotted to a nitrocellulose membrane. Immunoblot analysis was performed using Phospho-Akt, Akt, phospho-ERK1/2 or ERK-1/2 antibodies.

phospho-ERK-1/2 = experiment: Western blot of ERK-1/2 phosphorylation in HUVEC; assay type: cell-based, human; details: for increase in ERK-1/2 phosphorylation levels: 100 nM, after 5 minutes; for time of maximum ERK phosphorylation levels: data not shown; for ERK-1 and ERK-2 phosphorylation with Pertussis toxin: incubation with Pertussis toxin
Excerpt: as §1

[1] = test system: kinase activity present in HUVEC (sphingosine kinase); experiment: in vitro kinase assay with total cell extract from HUVEC; assay type: biochemical, human
Description: To confirm that FTY720 and (R)-AAL are phosphorylated by endothelial cells, an in vitro kinase assay was performed with both total cell extract and conditioned medium from HUVEC. […] Cells were scraped at 4° C. with 400 μl of 25 mM HEPES pH 7.5, […], 1× protease inhibitor mixture, and disrupted by brief sonication. Cellular homogenates were centrifuged for 10 minutes, 4° C. at 20,000×g. In the kinase assay, 300 μl of conditioned medium (derived from 5×10^5 cells for 3 hours of incubation) or 10 μg of total cell extract from HUVEC were used as a source of kinase activity. […] Lipids were extracted and samples were resuspended in 50 μl of chloroform. Lipids were resolved by TLC on Silica Gel G60 using 1-butanol/acetic acid/water (60/20/20 volume/volume) buffer and quantified with a PhosphorImager (Molecular Dynamics).

VE-cadherin = VE-cadherin localization by immunofluorescence in HUVEC; assay type: cell-based, human; details: 30 minutes; 10 nM (S1P 100 nM)
Description: The effects of FTY720-P and (R)-AFD on the localization of VE-cadherin were studied using immunofluorescence analysis. In this study, 2×10^5 cells were plated in 35 millimeter glass bottom petri dishes. Three days later, the cells were washed and serum starved for 3 hours before treatments. Then, the cells were washed with ice-cold PBS, fixed, and immunofluorescence analysis with VE-cadherin antibody was conducted (1 μg/ml Santa Cruz). The primary antibody staining was visualized with Rhodamine-conjugated goat anti-mouse (1:1000, Cappel) IgG. Confocal microscopy was conducted on a Zeiss LSM 510 laser-scanning confocal microscope. Rhodamine fluorescence was excited using a 543 nm Helium/Neon laser and emitted fluorescence was detected with a […] long-pass filter.

[2] = test system: VEGF-induced vascular permeability; experiment: mouse ear microvascular permeability assay (VEGF-induced); assay type: in vivo, FVB/N mice; details: mice, single oral administration (gavage, 50 μg) 5 hours prior
Description: The role of plasma borne FTY720-P or (R)-AFD in the regulation of vascular permeability was tested in vivo. In order to test this possibility, an in vivo vascular permeability model was used in FTY720, (R)-AFD or (S)-AAL-pretreated mice. […] Five hours post-gavage, animals were anesthetized with 2% Avertin™ (0.5 cc/20 g) and infused through the tail vein with 100 μl FITC-dextran (5 mg/ml, 165 kDa). Animals were placed on a warming table under a fluorescent dissecting microscope (Zeiss STV11, Zeiss, Inc.) and the central vessels in the ear were imaged. Control saline or mouse vascular endothelial growth factor (mVEGF, 10 ng/ml) was injected subdermally into the middle ear using a 30 gauge needle (30 μl). Ear vasculature was then imaged with fixed exposure times in a stationary position from 5 minutes to 120 minutes post-injection. Fluorescence images were then quantified using pixel-based threshold in ImageProPlus (Media Cybernetics, Inc.) and quantified.

SK2 = target: T1, SK2 (Mus musculus, UniProt Q9JIA7)
T1 sequence (Q9JIA7 1-617): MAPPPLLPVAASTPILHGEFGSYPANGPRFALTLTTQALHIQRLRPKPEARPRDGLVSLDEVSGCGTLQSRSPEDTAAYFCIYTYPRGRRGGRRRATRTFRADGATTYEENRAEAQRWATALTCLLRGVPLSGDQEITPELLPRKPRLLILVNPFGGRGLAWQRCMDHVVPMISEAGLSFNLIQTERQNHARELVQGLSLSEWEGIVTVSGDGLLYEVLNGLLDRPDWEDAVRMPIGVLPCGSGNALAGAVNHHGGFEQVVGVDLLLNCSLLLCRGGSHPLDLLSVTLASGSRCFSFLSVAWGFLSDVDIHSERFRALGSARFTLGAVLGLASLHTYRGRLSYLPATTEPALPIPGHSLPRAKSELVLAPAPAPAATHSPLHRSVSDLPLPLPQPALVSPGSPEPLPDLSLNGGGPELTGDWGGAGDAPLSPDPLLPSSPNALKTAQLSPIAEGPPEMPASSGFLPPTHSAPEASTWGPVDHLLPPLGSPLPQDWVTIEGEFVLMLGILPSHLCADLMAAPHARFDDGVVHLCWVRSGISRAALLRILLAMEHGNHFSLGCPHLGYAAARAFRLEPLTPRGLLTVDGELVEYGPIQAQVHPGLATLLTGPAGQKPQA

HUVEC [3] = experiment: HUVEC migration (96 well chemotaxis microchamber); details: for migration induced by conditioned medium: compound incubated with HUVEC for 3 hours, conditioned medium used as chemoattractant; for induction of endothelial cell migration: compound used directly as chemoattractant, 4 hours; for fold induction at 0.01 µM: read-out: migration, fold induction at maximum effect; for induced migration in presence of Pertussis toxin: Pertussis toxin 200 ng/mL
Description: Briefly, polycarbonate filters with a pore size of 8 micrometers (μm) were coated with 5 micrograms per milliliter (μg/ml) fibronectin. […] Approximately 5×10^4 cells suspended in M199 with 0.1% bovine serum albumin were placed in the upper compartment. The cells were allowed to migrate for 4 hours at 37° C. in a humidified chamber with 5% CO2. After the incubation period, the filter was removed, and cells were stained in 0.1% crystal violet and eluted with 10% acetic acid in 96-well plates.
After incubation, conditioned medium was removed, centrifuged at 1,000×g for 10 minutes, and used in the migration assay.

HUVEC [4] = experiment: apoptosis induced by serum deprivation in HUVEC (DNA fragmentation); assay type: cell-based, human; details: for Emax at 0.01 µM: Homo sapiens, HUVEC, 10 nM, 8 hours serum deprivation, read-out: inhibition of DNA fragmentation (maximum effect); for anti-apoptotic effect with Pertussis toxin: Pertussis toxin treatment
Description: Since ERK-1 and ERK-2 activation is necessary for the survival effect of S1P in endothelial cells, it was tested if FTY720-P and its analog (R)-AFD could prevent apoptosis induced by serum deprivation in HUVEC. In this test, HUVEC cells were labeled with {methyl-^3H}-thymidine (1 μCi/ml) for 16 hours. Then, they were washed and 0.1% ffa-BSA M199 containing the different treatments was added. After 8 hours, fragmented DNA was solubilized and quantified as described.

[5] = test system: Mouse embryonic endothelial cells; experiment: VEGF-induced paracellular permeability (Transwell, FITC-dextran); assay type: cell-based; details: 100 nM, 1 hr pretreatment, 45 minute time point, VEGF 50 ng/ml
Description: Several studies have shown that VE-cadherin could be an important determinant of vascular permeability. […] A cellular system was used to assess the effects of S1P, FTY720-P and (R)-AFD on vascular permeability. Mouse embryonic endothelial cells (5×10^4) were cultured for 2 days in Transwell polycarbonate filters (6.5 mm diameter, 0.4 μm pores; Costar). Culture medium was replaced with serum/phenol red-free DMEM (HEPES buffer, L-glutamine, and pyridoxine hydrochloride) (0.1 mL upper chamber and 0.6 mL lower chamber). […] FITC-dextran (average MW=2,000 kDa), was added to the upper compartment either in the absence or presence of murine recombinant VEGF (50 ng/ml). Media from lower wells were taken after indicated time periods (5-45 minutes). Samples were placed in black solid bottom 96 well plates (Costar) and fluorescence intensities were measured using CytoFluor(R) fluorescence multi-well plate reader (Applied Biosystems) at 488 nm excitation. Data=mean±SE of duplicates. N=2. *p<0.01 VEGF vs. untreated. #p<0.01 treatments+VEGF vs. VEGF alone.

| SMILES | VE-cadherin localization at cell-cell contact regions / translocation to adherens junctions (VE-cadherin) | inhibition of vascular permeability induced by VEGF [2] | migration induced by conditioned medium (HUVEC [3]) | induction of endothelial cell migration (HUVEC [3]) | increase in Akt phosphorylation levels (phospho-Akt) [fold] | Akt phosphorylation (in words) (phospho-Akt; 5 minute stimulation) | time of maximum Akt phosphorylation levels (phospho-Akt) [min] | Akt phosphorylation with Pertussis toxin (phospho-Akt) | increase in ERK-1/2 phosphorylation levels (phospho-ERK-1/2) [fold] | ERK-1/2 phosphorylation (in words) (phospho-ERK-1/2; 5 minute stimulation) | time of maximum ERK phosphorylation levels (phospho-ERK-1/2) [min] | ERK-1 and ERK-2 phosphorylation with Pertussis toxin (phospho-ERK-1/2) | concentration of maximum anti-apoptotic effect (HUVEC [4]) [nM] | Emax at 0.01 µM (HUVEC [4]) [%] | anti-apoptotic effect with Pertussis toxin (HUVEC [4]) | inhibition of VEGF-induced paracellular permeability [5] | concentration of maximum effect on migration (HUVEC [3]) [nM] | fold induction at 0.01 µM (HUVEC [3]; Homo sapiens, HUVEC) | induced migration in presence of Pertussis toxin (HUVEC [3]) | also measured |
| --- | --- | --- | --- | --- | --- | --- | --- | --- | --- | --- | --- | --- | --- | --- | --- | --- | --- | --- | --- | --- |
| CCCCCCCOc1ccc(CC[C@@](C)(N)CO)cc1 (stereo in doubt) [AAL, 2-amino-2-methyl-4-[4-heptoxy-phenyl]butane-1-ol] | – | – | – | – | – | – | – | – | – | – | – | – | – | – | – | – | – | – | – | Akt phosphorylation (in words) (phospho-Akt): did not induce phospho-Akt or phospho-ERK-1/2 levels; ERK-1/2 phosphorylation (in words) (phospho-ERK-1/2): did not induce phospho-Akt or phospho-ERK-1/2 levels |
| CCCCCCCOc1ccc(CC[C@@](C)(N)CO)cc1 [(R)-AAL, 2-amino-2-methyl-4-[4-heptoxy-phenyl]butane-1-ol] | did not induce VE-cadherin translocation to the adherens junctions | potently inhibited vascular permeability in vivo | activated into potent chemoattractants for endothelial cells | Neither FTY720 nor its structural analog (R)-AAL induced endothelial cell migration | – | – | – | – | – | – | – | – | – | – | – | – | – | – | – | specific activity (phosphorylation of the substrate) ([1]; HUVEC total cell extract, 100 μM FTY720 or AAL, 20 μM sphingosine, 30 minutes): 15 ± 0.93 pmol/mg/min; specific activity (phosphorylation of the substrate) (SK2; SK2-[…]T, 100 μM FTY720 or (R)-AAL, 20 μM sphingosine): 199.5 pmol/min/mg |
| CCCCCCCOc1ccc(CC[C@@](C)(N)COP(=O)(O)O)cc1 [(R)-AFD] | increase in VE-cadherin localization at the cell-cell contact regions | – | – | potent chemoattractants for HUVEC | 4.5 | higher than the one induced by S1P | 5 | blocked by incubation with Pertussis toxin | 8.2 | higher than the one induced by S1P | 5 | blocked by incubation with Pertussis toxin | 10 | ~70 | blocked by Pertussis toxin treatment | profoundly inhibited | 10 | 9 | blocked by Pertussis toxin | – |
| CCCCCCCOc1ccc(CC[C@](C)(N)CO)cc1 [(S)-AAL, 2-amino-2-methyl-4-[4-heptoxy-phenyl]butane-1-ol] | – | but not (S)-AAL also potently inhibited vascular permeability in vivo | did not induce migration after incubation with endothelial cells | – | – | – | – | – | – | – | – | – | – | – | – | – | – | – | – | phosphorylation of the substrate ([1]; HUVEC kinase activity, 100 μM): undetectable; phosphorylation of the substrate (SK2; SK2-[…]T extract, 100 μM): barely detectable |
| CCCCCCCCc1ccc(CCC(N)(CO)COP(=O)(O)O)cc1 (stereo not drawn) [FTY720-P] | increase in VE-cadherin localization at the cell-cell contact regions | – | – | potent chemoattractants for HUVEC | 3.7 | higher than the one induced by S1P | 5 | blocked by incubation with Pertussis toxin | 9.3 | higher than the one induced by S1P | 5 | blocked by incubation with Pertussis toxin | 10 | ~70 | blocked by Pertussis toxin treatment | profoundly inhibited | 10 | 13 | blocked by Pertussis toxin | – |
| CCCCCCCCCCCCC/C=C/[C@@H](O)[C@@H](N)COP(=O)(O)O [S1P, Sphingosine-1-phosphate, reference compound] | comparable to that observed for S1P | – | – | – | – | – | 5 | blocked by incubation with Pertussis toxin | – | – | 5 | blocked by incubation with Pertussis toxin | – | – | blocked by Pertussis toxin treatment | profoundly inhibited | – | – | – | fold induction at 0.1 µM (HUVEC [3]; Homo sapiens, HUVEC, read-out: migration, fold induction): 14 |
